From PubChem BioAssay (NCI)
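In this assay, cells in 96-well plates receive the compound at five concentrations for 48 hours. Endpoints are linearly interpolated between the surrounding concentrations. TGI: total growth inhibition.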

Experiments:
Test in all cases: NCI-60 cell line screen, 48 h
786-0 renal = test system: 786-0 renal
COLO 205 colon = test system: COLO 205 colon
HOP-62 NSCLC = test system: HOP-62 NSCLC
HT29 colon = test system: HT29 colon
MCF7 breast = test system: MCF7 breast
OVCAR-3 ovarian = test system: OVCAR-3 ovarian
SF-295 CNS = test system: SF-295 CNS
SK-MEL-5 melanoma = test system: SK-MEL-5 melanoma
SK-OV-3 ovarian = test system: SK-OV-3 ovarian
SW-620 colon = test system: SW-620 colon
U251 CNS = test system: U251 CNS
UO-31 renal = test system: UO-31 renal

SMILES | TGI (786-0 renal) [µM] | TGI (COLO 205 colon) [µM] | TGI (HOP-62 NSCLC) [µM] | TGI (HT29 colon) [µM] | TGI (MCF7 breast) [µM] | TGI (OVCAR-3 ovarian) [µM] | TGI (SF-295 CNS) [µM] | TGI (SK-MEL-5 melanoma) [µM] | TGI (SK-OV-3 ovarian) [µM] | TGI (SW-620 colon) [µM] | TGI (U251 CNS) [µM] | TGI (UO-31 renal) [µM]
Cc1ncc(CSC(=N)N)n1Cc1ccccc1 | > 100 | > 100 | > 100 | > 100 | > 100 | > 100 | > 100 | > 100 | > 100 | > 100 | > 100 | > 100
c1ccc(-c2c(-c3[nH]c4ccccc4c3-c3ccccc3)[nH]c3ccccc23)cc1 | 4.08 | 3.53 | 5.03 | > 100 | 11.9 | 5.44 | 14.9 | 14.8 | 21 | 13.1 | 14.8 | 12.7
CCCCCCCCCCCCC1N=C(N)NC2(CCCO2)C1C(=O)OC (configuration not stated) | 16.9 | 10.9 | 23.8 | 3.48 | 9.2 | 13.2 | 24.7 | 23.7 | 23.8 | 7.65 | 3.2 | 32.2
COC(=O)c1ccccc1C1CN=NC12Cc1c(C)ccc(C)c1C2=O (configuration not stated) | > 100 | > 100 | > 100 | > 100 | > 100 | > 100 | > 100 | > 100 | > 100 | > 100 | > 100 | > 100
C=CCN1C(=O)CC(=O)N(NC2=NNC3(C(=O)N2)c2ccccc2-c2ccccc23)C1=S | > 100 | 45 | > 100 | > 100 | > 100 | > 100 | > 100 | > 100 | > 100 | > 100 | > 100 | > 100
COc1ccc(CC[N+]2(C)COc3cc4oc(=O)cc(C)c4cc3C2)cc1OC (configuration not stated) | > 100 | > 100 | > 100 | > 100 | > 100 | > 100 | > 100 | > 100 | > 100 | > 100 | > 100 | > 100
